Measured values: patent publication US10519143B2, “Substituted-indole-compounds as estrogen receptor down-regulators” (LUOXIN PHARMACEUTICAL (SHANGHAI) CO., LTD, priority 2016, dated 2019)
Like-named read-outs stand apart in the source and are kept apart here.

System: MCF-7 cells
Experiment: MCF-7 cell proliferation inhibition assay
Type: cell-based
Details: Homo sapiens, MCF7, 144 h
Experimental: Experimental Reagent: RPMI 1640 medium, fetal bovine serum, Promega CellTiter-Glo reagent. The cell line MCF-7 was purchased from The European Collection of Authenticated Cell Cultures (ECACC). Envision Multilabel Reader (PerkinElmer). Experimental Method: […] The cell plate was placed in a carbon dioxide incubator overnight. […] The cell plate was incubated in a carbon dioxide incubator for 6 days. Promega CellTiter-Glo reagent was added to the cell plate at 25 μL per well, cells were incubated for 10 minutes at room temperature to stabilize the luminescence signal, which was measured using PerkinElmer Envision Multilabel Reader. Data Analysis: […] (Model 205 in XLFIT5, iDBS)

[1] = MCF-7 cells, 6 days incubation, CellTiter-Glo, read-out: anti-proliferation in MCF-7 cells
[2] = read-out: anti-proliferation in MCF-7 cells (nM)

Row | Structure (SMILES) | IC50 [1] | IC50 [2]
1 | CC/C(=C(/c1ccc(/C=C/C(=O)O)cc1)c1cc2ccccc2[nH]1)c1cccc(OC(F)(F)F)c1 [Compound I-2] | 282 nM | 
2 | CC/C(=C(/c1ccc(/C=C/C(=O)O)cc1)c1cc2ccccc2[nH]1)c1ccccc1OC(F)(F)F [Compound I-3] | 206 nM | 
3 | CC/C(=C(/c1ccc(/C=C/C(=O)O)cc1)c1cc2ccccc2[nH]1)c1cccc(C(F)(F)F)c1 [Compound I-4] | 325 nM | 
4 | CC/C(=C(/c1ccc(/C=C/C(=O)O)cc1)c1cc2ccccc2[nH]1)c1ccccc1C(F)(F)F [Compound I-5] | 8.04 nM | 
5 | CC/C(=C(/c1ccc(/C=C/C(=O)O)cc1)c1cc2ccccc2[nH]1)c1cccs1 [Compound I-6] | 321 nM | 
6 | CC/C(=C(/c1ccc(/C=C/C(=O)O)cc1)c1[nH]c2ccccc2c1Br)c1ccc(F)cc1Cl [Compound I-7] | 9.52 nM | 
7 | CC/C(=C(/c1ccc(/C=C/C(=O)O)cc1)c1[nH]c2ccccc2c1Cl)c1ccc(F)cc1Cl [Compound I-8] | 5.59 nM | 
8 | CC/C(=C(/c1ccc(/C=C/C(=O)O)cc1)c1cc2ccc(F)cc2[nH]1)c1ccc(F)cc1Cl [Compound I-9] | 167 nM | 
9 | CC/C(=C(/c1ccc(/C=C/C(=O)O)cc1)c1[nH]c2ccccc2c1Cl)c1ccccc1C(F)(F)F [Compound I-10] | 13 nM | 
10 | CC/C(=C(/c1ccc(/C=C/C(=O)O)cc1)c1[nH]c2ccccc2c1Br)c1ccccc1C(F)(F)F [Compound I-11] | 8.53 nM | 
11 | CC/C(=C(/c1ccc(/C=C/C(=O)O)cc1)c1cc2ccccc2[nH]1)c1ccc(F)cc1C(F)(F)F [Compound I-12] | 13 nM | 
12 | CC/C(=C(/c1ccc(/C=C/C(=O)O)cc1)c1cc2ccccc2[nH]1)c1ccc(C(F)(F)F)cc1Cl [Compound I-13] | 27 nM | 
13 | CC/C(=C(/c1ccc(/C=C/C(=O)O)cc1)c1cc2ccccc2[nH]1)c1ccc(Cl)cc1C(F)(F)F [Compound I-14] | 4.11 nM | 
14 | CC/C(=C(/c1ccc(/C=C/C(=O)O)cc1)c1[nH]c2ccccc2c1Cl)c1ccsc1C#N [Compound I-15] | 7.56 nM | 
15 | CC/C(=C(/c1ccc(/C=C/C(=O)O)cc1)c1cc2ccccc2[nH]1)c1cc(Cl)sc1Cl [Compound I-17] |  | 8.29 nM
16 | CC/C(=C(/c1ccc(/C=C/C(=O)O)cc1)c1cc2ccccc2[nH]1)c1ccsc1C#N [Compound I-18] |  | 22 nM
17 | CC/C(=C(/c1ccc(/C=C/C(=O)O)cc1)c1[nH]c2ccccc2c1C)c1ccc(F)cc1Cl [Compound I-19] | 4.78 nM | 
18 | CC/C(=C(/c1ccc(/C=C/C(=O)O)cc1)c1cc2ccccc2[nH]1)c1ccc(Cl)cc1C#N [Compound I-21] | 14 nM | 
19 | CC/C(=C(/c1ccc(/C=C/C(=O)O)cc1)c1[nH]c2ccccc2c1Cl)c1ccc(Cl)cc1C#N [Compound I-22] | 0.86 nM | 
20 | CC/C(=C(/c1ccc(/C=C/C(=O)O)cc1)c1[nH]c2ccccc2c1C#N)c1ccc(F)cc1Cl [Compound I-23] | 4.84 nM | 
21 | CC/C(=C(/c1ccc(/C=C/C(=O)O)cc1)c1[nH]c2ccccc2c1Cl)c1ccc(Cl)cc1 [Compound I-24] | 21.5 nM | 
22 | CC(C)C/C(=C(/c1ccc(/C=C/C(=O)O)cc1)c1cc2ccccc2[nH]1)c1ccc(F)cc1Cl [Compound I-27] | 8.36 nM | 
23 | CC/C(=C(/c1ccc(/C=C/C(=O)O)cc1)c1[nH]c2ccccc2c1Cl)c1ccc(Cl)c(C)c1 [Compound I-28] | 69 nM | 
24 | CC/C(=C(/c1ccc(/C=C/C(=O)O)cc1)c1cc2ccccc2[nH]1)c1c(C)cccc1Cl [Compound I-29] |  | 30 nM
25 | CC/C(=C(/c1ccc(/C=C/C(=O)O)cc1)c1cc2ccccc2[nH]1)c1ccc2c(c1)OCCO2 [Compound I-30] | 48 nM | 
26 | CC/C(=C(/c1ccc(/C=C/C(=O)O)cc1)c1[nH]c2ccccc2c1Cl)c1ccc2c(c1)OCCO2 [Compound I-31] | 3.66 nM | 
27 | CC/C(=C(/c1ccc(/C=C/C(=O)O)cc1)c1cc2ccccc2[nH]1)c1ccc(OC)cc1 [Compound I-32] | 61 nM | 
28 | CC/C(=C(/c1ccc(/C=C/C(=O)O)cc1)c1[nH]c2ccccc2c1Cl)c1ccc(OC)cc1 [Compound I-33] | 2.86 nM | 
